The results in this text go back to patent US20260284016A1, “COMBINATIONS AND METHODS FOR ENHANCING CHECKPOINT INHIBITOR THERAPIES IN CANCER TREATMENT” (PURDUE RESEARCH FOUNDATION, priority 2004, published 2026).

The structures appear in SMILES notation.

Test [1] concerns human primary monocyte-derived M2-macrophages. The test can be described thus: IL-6 and CXCL-10 induction in monocyte-derived M2-macrophages. Particulars: 48 hours. The class given is cell-based.
Test [2] deals with peripheral blood mono nuclear cells (PBMCs). In words: IL-6 in PBMC culture supernatant by ELISA. It counts as cell-based. Particulars: 24 hours. As for the experimental part:
To evaluate the efficacy of TLR-7 agonists, Compound 1 (TLR7-TA), Compound 2 (TLR7-1B) and Compound 3 (TLR7-1C) were treated with peripheral blood mono nuclear cells (PBMCs) for 24 hours. TLR7-1 was used as control. Cell culture supernatant was isolated and tested for IL-6 using enzyme-linked immunosorbent assay (ELISA) (FIG. 22).
For orientation: In an ELISA, binding on a coated surface is turned into a signal by an enzyme label.

As for `Nc1nc2ncc(CNc3ccc(C(=O)NC(CCC(=O)N[C@@H](CSSCCOC(=O)OCC4CCCN(CCNc5ccc(Cn6c(=O)[nH]c7c(N)nc(C(F)(F)F)cc76)cn5)C4)C(=O)O)C(=O)O)cc3)nc2c(=O)[nH]1` (stereo partly shown) [Compound 3], in test [1], the “CXCL-10 induction compared to parent compound TLR7-1” value is “more efficiently”; the “IL-6 induction compared to parent compound TLR7-1” value is “more efficiently”; the “macrophage polarization (M1 markers IL-6, CXCL10)” value is reported as “polarize the M2 macrophages to M1 macrophages”. Further, the “IL-6 in culture supernatant” value in test [2] is given as “increased expression of IL-6”.
